From ChEMBL document CHEMBL3352702, “Design, synthesis and in vitro antikinetoplastid evaluation of N-acylated putrescine, spermidine and spermine derivatives” (Bioorg Med Chem Lett, 2015) come the findings set out here.

pIC50: −log10 of the molar value.

The subject of data set [1] is Trypanosoma brucei. Description: Antikinetoplastid activity against Trypanosoma brucei gambiense assessed as parasite growth inhibition. The data set is classed as functional, organism-based.
In data set [2] the test system is RAW264.7. Description: Cytotoxicity against mouse RAW264.7 cells assessed as reduction in cell viability up to 100 uM. The data set is classed as cell-based.
The test system of data set [3] is Leishmania donovani. Description: Antikinetoplastid activity against Leishmania donovani LV9 […] amastigotes in mouse RAW264.7 cells assessed as viability measured 24 hrs by SYBR green assay. The note with it: LV9, RAW264.7, 24 h. The class given is functional, organism-based.
A short description of data set [4]: Selectivity index, ratio of cytotoxicity against mouse RAW264.7 cells to IC50 for Trypanosoma brucei gambiense. As to conditions: read-out: Selectivity Index. The data set is classed as toxicity, cell-based.

`CC(=O)NCCSCC(=O)NCCCCNCCCN.Cl`: the negative-log IC50 (pIC50) – broadly, −log10 of the IC50, conventionally taken in molar units – in data set [1] was 5.24; in data set [3], less than 4.00. Moreover, the Activity result in data set [2] is recorded as “Non-toxic”.
In the case of `N=C(N)c1ccc(OCCCCCOc2ccc(C(=N)N)cc2)cc1` [PENTAMIDINE], the negative logarithm of the IC50 (pIC50) in data set [1] was 7.96; in data set [3] it was 5.38.
Turning to `COCC(=O)NCCCCNCCCN.Cl`, the pIC50 in data set [1] was 4.81; in data set [3] it was 4.30. The Activity entry in data set [2] was “Non-toxic”.
In the same order, the values of `CC(=O)NCCSCC(=O)NCCCNCCCCN.Cl` are 4.83, 4.15 and “Non-toxic”.
`CC(=O)NCCSCC(=O)NCCCNCCCCNCCCN.Cl`: the pIC50 is 5.72 in data set [1] and less than 4.00 in data set [3]. Moreover, the selectivity ratio in data set [4] is more than 52. Besides, in data set [2], the Activity entry was “Non-toxic”.
For `CC(=O)NCCC(=O)NCCSCC(=O)NCCCNCCCCN.Cl`, the pIC50 was 4.94 in data set [1] and less than 4.00 in data set [3]. Besides, in data set [2], the Activity result was “Non-toxic”.
The matching figures for `CC(C)(C)OC(=O)NCCCCN(CCCN)C(=O)OC(C)(C)C`: 4.94, less than 4.00 and “Non-toxic”.
The matching figures for `COCC(=O)NCCCNCCCCN.Cl`: less than 4.00, 5.26 and “Non-toxic”.
The matching figures for `COCC(=O)NCCCN(CCCCNC(=O)OC(C)(C)C)C(=O)OC(C)(C)C`: less than 4.00, less than 4.00 and “Non-toxic”.
Take `CC(=O)NCCC(=O)NCCSCC(=O)NCCCNCCCCNCCCN.Cl`: the pIC50 in data set [1] was 5.53; in data set [3], less than 4.00. For the same compound, the Activity entry in data set [2] is given as “Non-toxic”.
The matching figures for `CC(C)(C)OC(=O)NCCCCN(CCC#N)C(=O)OC(C)(C)C`: less than 4.00, less than 4.00 and “Non-toxic”.
In the same order, the values of `COCC(=O)NCCCCN.Cl` are less than 4.00, less than 4.00 and “Non-toxic”.
As to `CC(C)(C)OC(=O)NCCCCN`, the pIC50 in data set [1] and in data set [3] was less than 4.00 each time. In addition, in data set [2], the Activity entry is given as “Non-toxic”.
As to `COCC(=O)NCCCCN(CCCNC(=O)OC(C)(C)C)C(=O)OC(C)(C)C`, the pIC50 in data set [1] and in data set [3] was less than 4.00 in each case. The Activity entry in data set [2] is “Non-toxic”.
On to `CC(C)(C)OC(=O)NCCCCNCCCNC(=O)OC(C)(C)C`, for which the negative logarithm of the IC50 (pIC50) in data set [1] and in data set [3] was less than 4.00 each time. Further, the Activity entry in data set [2] is reported as “Non-toxic”.
`COCC(=O)N(CCCN)CCCCN.Cl`: the negative logarithm of the IC50 (pIC50) in data set [1] and in data set [3] was less than 4.00 in each case. Also, in data set [2], the Activity entry is listed as “Non-toxic”.
Regarding `COCC(=O)N(CCCCNC(=O)OC(C)(C)C)CCCNC(=O)OC(C)(C)C`, the pIC50 in data set [1] and in data set [3] was less than 4.00 throughout. In addition, in data set [2], the Activity entry is “Non-toxic”.
On to `CCCCCCCCCCCCCCCCOP(=O)([O-])OCC[N+](C)(C)C` [MILTEFOSINE], for which the pIC50 in data set [3] was 4.99.
For `COCC(=O)NCCCCNC(=O)OC(C)(C)C`, the pIC50 in data set [1] and in data set [3] was less than 4.00 each time. Besides, the Activity entry in data set [2] is “Non-toxic”.
